Source: paper PMC6857051, “Proliferative regulation of alveolar epithelial type 2 progenitor cells by human Scnn1d gene” (Theranostics, 2019)

Columns and labels:
[1] = target: ENaC activity in mouse tracheal epithelial (MTE) monolayers, control; experiment: Ussing chamber short-circuit current, control MTE monolayers (uninduced δ802Tg); type: cell-based
[2] = target: ENaC activity in δ802-ENaC expressing mouse tracheal epithelial (MTE) monolayers; experiment: Ussing chamber short-circuit current, δ-ENaC MTE monolayers (induced δ802Tg/Cre); type: cell-based
[3] = system: ENaC activity in mouse AT2 monolayers; experiment: Ussing chamber short-circuit current, mAT2 monolayers; type: cell-based; details: mAT2 (and MTE) monolayers, Isc, Figure 5D
Experimental: Mouse AT2 cell isolation and monolayer cultures. Mouse AT2 cells were isolated from both wt and Scnn1d Tg/Cre strains with C57BL/6 genetic background with a modified protocol of a previous publication, [72]. Briefly, lungs of euthanized mice were removed and incubated in dispase for 45 minutes, and then were gently teased and incubated in DMEM/F-12 + 0.01% DNase I for 10 minutes. Cells were passed through a serial of Nitex filters (100, 40, 30, and 10 microns; Corning, USA) and centrifuged at 300 × g for 10 minutes. Resuspended cells were incubated with biotin conjugated anti-CD16/32, CD45 and CD119 antibodies (BD Pharmingen, USA) and then incubated with streptavidin-coated magnetic particles. The cells were then incubated for 2 h at 37 °C in a plastic culture dish precoated with mouse IgG to remove fibroblasts. Upon passing the request for both viability (> 90%) and purity assays (> 94%) (Figures S7 & S8), mouse laminin 1 precoated transwells (Corning Costar, USA) were seeded with AT2 cells (10^6 cells/cm^2). […] Transepithelial resistance (RT) and potential difference (ET) were measured with an epithelial voltohmmeter (World Precision Instrument, USA). IEQ values were calculated as the ratio of ET / RT values. […] The transmonolayer potential was short circuited to 0 mV, and Isc level was measured with an epithelial voltage clamp (VCC-MC8, Physiologic Instruments). […]

[4] = system: alveolar fluid clearance in human lungs; experiment: Alveolar fluid clearance in human lungs ex vivo; details: n=5 per group, 60 minutes after instillation
Text: Alveolar fluid clearance in human lungs ex vivo. The studies followed the guide of the […] and were approved by the Ethics Committee of the China Medical University (CMU) at Shenyang, China. All patients were given oral and written informed consent forms. Human lung tissues were obtained during pulmonary resection surgeries with lung cancer at the First Affiliated Hospital of CMU. There were no fibrous or emphysematous lesions as assessed by preoperative chest CT scanning. Human lung segments were prepared, and AFC measurements were done as described previously. Briefly, the segmental bronchus was occluded by a 10-Fr. balloon catheter immediately after removal of the lung, and occluded segments that were located furthest away from the focus of tumor were chosen. A warmed physiologic saline solution (20 ml; 37°C) containing 5% BSA with or without amiloride (1 mM) was instilled into the distal air spaces through the catheter. After instillation, the lungs were inflated with 100% oxygen at an airway pressure of 7 cm H2O. Alveolar fluid was aspirated 60 minutes after instillation. […] AFC values were calculated as follows: AFC = [(Vi - Vf)/Vi] × 100, where V is the volume of the instilled albumin solution (i) and the final alveolar fluid (f). […]

[5] = system: δ802- and γ-ENaC subunits; experiment: Immunoblot of cleavage of tagged δ802- and γ-ENaC subunits in oocytes by serine proteases; type: biochemical, human; details: 10 μg/ml, 45 minutes at room temperature
Experimental: Figure 3 Activation of δ802-containing ENaC channels by serine proteases. (A) Activation of δ802βγ ENaC expressed in Xenopus oocytes by two-chain urokinase plasminogen activator (tc-uPA). ENaC activity was measured at the membrane potential of -100 mV at defined time points post incubation with 10 μg/ml tc-uPA. n = 9-15. mean ± s.e.m. * P<0.05 vs data at the zero minute (min). (B) Time course of stimulatory effects of plasmin on δ802βγ-ENaC activity. n=12. * P<0.05. (C) Identification of subunit responsible for plasmin activation. Fold of amiloride-sensitive current (ASI) of ENaC-associated current in the presence of plasmin over that in the absence of plasmin was computed for oocytes expressing δ802+β+γ (δβγ), δ802 alone (δ), δ802+β(δβ), and δ802+γ (δγ). n = 12-15. * P<0.05. (D) Inhibitory effects of α-13 peptide on δ802αβγ- (δαβγ) and αβγ-ENaC activity post treatment of plasmin and aprotinin. Currents (I) at -100 mV were compared in the absence of amiloride (basal, open bar), presence of α-13 peptide (α13, closed bar), and amiloride (amil, grey bar). n=5. * P<0.05 vs basal currents, & P < 0.05 vs those in the presence of α-13 peptide. (E) Fractions of α-13 sensitive currents in cells pre-treated with plasmin and aprotinin. n=8. Control, without pre-treatment. (F) Cleavage of V5-tagged δ802- and γ-ENaC subunits by serine proteases. NI, non-injected oocytes as negative controls for ENaC expression. Oocytes incubated with chymotrypsin (CT, 10 μg/ml), plasmin (PI, 10 μg/ml) for 45 minutes at room temperature. Cells treated with the same volume of saline (‑) were controls for serine proteases.

[6] = α-13 300 μM apical, MTE monolayers, n=6

## N=C(N)NC(=O)c1nc(Cl)c(N)nc1N [amiloride]
[1]; Isc, Ussing chamber, amiloride 1 - 1,000 μM, n=5, read-out: ki value (logistic function), control MTE monolayers (converted)
  Ki: 680 nM
[2]; Isc, Ussing chamber, amiloride 1 - 1,000 μM, n=5, read-out: ki value (logistic function), δ-ENaC MTE monolayers (converted)
  Ki: 3040 ± 260 nM
[3]
  apparent ki value of amiloride, controls versus δ802-expressing cells: much lesser in controls

## Ac-LRGTLPHPLQRLR-NH2 [α-13 peptide]
[1]; [6]
  α-13 peptide-inhibitable fraction of Isc, control cells: 96%
[2]; [6]
  α-13 peptide-inhibitable fraction of Isc, δ802-ENaC cells: 52%
[4]
  fraction of total alveolar fluid clearance inhibited: Approximately half

B1: plasmin: serine protease of the plasmin(ogen) signal pathway for fibrinolysis (protein, UniProt P00747 20-580; P00747 581-810, looked up)
Plasmin heavy chain A: EPLDDYVNTQGASLFSVTKKQLGAGSIEECAAKCEEDEEFTCRAFQYHSKEQQCVIMAENRKSSIIIRMRDVVLFEKKVYLSECKTGNGKNYRGTMSKTKNGITCQKWSSTSPHRPRFSPATHPSEGLEENYCRNPDNDPQGPWCYTTDPEKRYDYCDILECEEECMHCSGENYDGKISKTMSGLECQAWDSQSPHAHGYIPSKFPNKNLKKNYCRNPDRELRPWCFTTDPNKRWELCDIPRCTTPPPSSGPTYQCLKGTGENYRGNVAVTVSGHTCQHWSAQTPHTHNRTPENFPCKNLDENYCRNPDGKRAPWCHTTNSQVRWEYCKIPSCDSSPVSTEQLAPTAPPELTPVVQDCYHGDGQSYRGTSSTTTTGKKCQSWSSMTPHRHQKTPENYPNAGLTMNYCRNPDADKGPWCFTTDPSVRWEYCNLKKCSGTEASVVAPPPVVLLPDVETPSEEDCMFGNGKGYRGKRATTVTGTPCQDWAAQEPHRHSIFTPETNPRAGLEKNYCRNPDGDVGGPWCYTTNPRKLYDYCDVPQCAAPSFDCGKPQVEPKKCPGR
Plasmin light chain B: VVGGCVAHPHSWPWQVSLRTRFGMHFCGGTLISPEWVLTAAHCLEKSPRPSSYKVILGAHQEVNLEPHVQEIEVSRLFLEPTRKDIALLKLSSPAVITDKVIPACLPSPNYVVADRTECFITGWGETQGTFGAGLLKEAQLPVIENKVCNRYEFLNGRVQSTELCAGHLAGGTDSCQGDSGGPLVCFEKDKYILQGVTSWGLGCARPNKPGVYVRVSRFVTWIEGVMRNN
modifications: Plasmin
notes: serine protease of the plasmin(ogen) signal pathway for fibrinolysis
[5]
  cleavage of γ-ENaC: catalyzed
  cleavage of δ802 subunit: Neither chymotrypsin nor plasmin nor endogenous furin cleaved the δ802 subunit
